In patent publication US8084459B2, “Substituted quinazolinones for treating neurological conditions” (Prana Biotechnology Ltd, priority 2004, dated 2011):

How the values were obtained:
[1] = Assay 3(d) test compound cytotoxicity (MTS); type: cell-based; details: BL6Jx129sv, mouse, primary cortical neuronal cultures, cortical neurons; for viability at 4 days, 1 µM: read-out: Assay 3(d) Cytotoxicity (% viable at 1 uM); for viability at 4 days, 10 µM: read-out: Assay 3(d) Cytotoxicity (% viable at 10 uM)
Summary of the method: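 E14 mouse (BL6Jx129sv) primary cortical neurons cultured 5 days, then exposed on day 6 to compound prediluted in Neurobasal/B27 without antioxidants, working solutions 2.5, 25, 250 uM, in triplicate for 4 days at 37 °C. Viability by MTS, 2 h at 37 °C, absorbance 560 nm.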

[2] = system: soluble and insoluble Aβ in the brain; assay: Assay 11 effect on Aβ deposits in transgenic animals (soluble and insoluble Aβ, Western blot); type: in vivo, APP2576 transgenic mouse; details: APP2576 mice; for Tg mice Insoluble Fraction: % change compared with vehicle alone control mice: insoluble Aβ; for Tg mice Soluble Fraction: % change compared with vehicle alone control mice: soluble Aβ
[3] = system: Aβ plaques; assay: Assay 14 transgenic mouse brain immunohistochemistry (plaque score); type: in vivo; details: APP2576 mice
Excerpt: Assay 14. Transgenic Mouse Brain Immunohistochemistry
The APP2576 transgenic mouse (Hsiao et al., 1996) as referred to in Assay 11 is utilized in this assay. The contralateral formalin-fixed mouse brain tissue is coronally cut. Sections (10 μm) are taken from the corresponding sites and treated with 80% formic acid for antigen retrieval. The primary antibody used is monoclonal antibody 1E8, which recognizes epitopes between residues 18 and 22 of Aβ (SmithKline Beecham, UK). Immunoreactivity is developed with secondary antibody linked to horseradish peroxidase (using a 3,39-diaminobenzidinechromagen) (Dako) and alkaline phosphatase (using 5-bromo-4-chloro 3-indoxyl phosphate and nitroblue tetrazolium chloride chromagen) (Dako). Plaque abundance per section is assessed by two operators blinded to treatment according to the following scale:
1=plaques present but very sparse
2=several plaques present
3=numerous plaques visible in restricted areas
4=plaques abundant and not restricted to any particular area.
Intermediate values eg 2.5 are assigned where applicable. Students ‘t’ test is used for comparisons between groups.

| SMILES | viability at 4 days, 1 µM [1] [%] | viability at 4 days, 10 µM [1] [%] | Tg mice Insoluble Fraction: % change compared with vehicle alone control mice [2] | Tg mice Soluble Fraction: % change compared with vehicle alone control mice [2] | Plaques score: average count score per treatment group relative to the vehicle (sham) treated group [3] |
| --- | --- | --- | --- | --- | --- |
| O=c1c2c(Cl)cc(Cl)c(O)c2ncn1CCN1CCCC1 [Compound 1075] | 99 | 87 | +9% (insol), | −19% (sol), | −22% (plaque) |
| O=c1c2c(Cl)cc(Cl)c(O)c2ncn1Cc1ccccn1 [Compound 1077] | 101 | 86 | Negligible effect on | −17% (sol), | −30% (plaque) |
| Cc1nc(Cn2cnc3c(O)c(Cl)cc(Cl)c3c2=O)cs1 [Compound 1084] | 100 | 93 | −17% (insol), | −29% (sol) | −21% (plaque) |
| Cc1noc(C)c1Cn1cnc2c(O)c(Cl)cc(Cl)c2c1=O [Compound 1085] | 99 | 72 | – | – | – |
| Br.CCCn1cnc2c(O)c(Cl)cc(Cl)c2c1=O [Compound 1097] | 99 | 78 | +1% (insol) | −22% (sol) | −3% (plaque) |
